This data set can be described thus: Waters ACQUITY UPLC BEH Shield RP18, 100 × 2.1 mm, 1.7 µm, 40 °C, 0.4 mL/min, estimated dead time 0.55 min; A: water + 0.1% formic acid; B: acetonitrile; gradient (min/%B) 0/2 10/18 15/28 22/40 32/67. Conditions: stereoisomer not certain.
For the compound `COc1cc(O)c2c(=O)c(OC)c(-c3ccc(O)cc3)oc2c1`, the LC retention time is 15.1 min.
As for `COc1c(CC=C(C)C)c(O)cc2c1CC(c1ccc(O)c(CC=C(C)C)c1O)CO2` (configuration not stated), the LC retention time is 28.7 min.
In the case of `COc1ccc(-c2coc3cc(O)ccc3c2=O)cc1`, the LC retention time was 19 min.
Next, `O=C(C=Cc1ccc(O)cc1)c1ccc(OC2OC(CO)C(O)C(O)C2O)cc1O` (configuration not stated): 14.5 min.
Next, `COc1ccc(-c2coc3cc(O)ccc3c2=O)cc1O`: 15.1 min; `COc1cc(O)c(-c2coc3cc(O)ccc3c2=O)c(OC)c1CC=C(C)C`: 24.1 min; `CC1(CO)CC(O)C2(C)CCC3(C)C(=CC(=O)C4C5(C)CCC(OC6OC(C(=O)O)C(O)C(O)C6OC6OC(C(=O)O)C(O)C(O)C6O)C(C)(C)C5CCC43C)C2C1` (configuration not stated): 16.8 min.
Under `CC(C)=CCc1c(O)cc2oc(-c3ccc(O)cc3)c(O)c(=O)c2c1O` stands 28.1 min; under `COc1c(CC=C(C)C)c(O)cc2oc(=O)c3c4ccc(O)cc4oc3c12`, 27.2 min.
For `CC12CC(OC1=O)C1(C)CCC3(C)C(=CC(=O)C4C5(C)CCC(OC6OC(C(=O)O)C(O)C(O)C6OC6OC(C(=O)O)C(O)C(O)C6O)C(C)(C)C5CCC43C)C1C2` (configuration not stated), the LC retention time is 19.8 min.
Next, `O=C(C=Cc1ccc(OC2OC(CO)C(O)C(O)C2OC2OCC(O)(CO)C2O)cc1)c1ccc(O)cc1O` (configuration not stated): 14 min; `CC1(C(=O)OC2OC(CO)C(O)C(O)C2O)CCC2(C)CCC3(C)C(=CC(=O)C4C5(C)CCC(OC6OC(C(=O)O)C(O)C(O)C6OC6OC(C(=O)O)C(O)C(O)C6O)C(C)(C)C5CCC43C)C2C1` (configuration not stated): 17.4 min; `COc1ccc(-c2coc3cc(OC4OC(CO)C(O)C(O)C4OC4OCC(O)(CO)C4O)ccc3c2=O)cc1` (configuration not stated): 12.2 min.
For `COc1cc(O)cc2oc(=O)c(-c3ccc(O)cc3O)cc12`, the LC retention time was 19.9 min.
Next, `COc1ccc(-c2coc3cc(OC4OC(CO)C(O)C(O)C4O)ccc3c2=O)cc1` (configuration not stated): 12.3 min; `CC1(C(=O)O)CCC2(C)CCC3(C)C(=CC(=O)C4C5(C)CCC(O)C(C)(C)C5CCC43C)C2C1` (configuration not stated): 29.2 min; `CC1(C(=O)O)CCC2(C)CCC3(C)C(=CC(=O)C4C5(C)CCC(OC6OC(C(=O)O)C(O)C(O)C6OC6OC(C(=O)O)C(O)C(O)C6O)C(C)(CO)C5CCC43C)C2C1` (configuration not stated): 20.7 min.
Under `O=C1CC(c2ccc(OC3OC(CO)C(O)C(O)C3OC3OCC(O)(CO)C3O)cc2)Oc2cc(O)ccc21` (configuration not stated) stands 10.2 min; under `O=C1CC(c2ccc(O)cc2)Oc2cc(O)ccc21` (configuration not stated), 14.6 min; under `CC1(C(=O)O)CCC2(C)CCC3(C)C(=C2C1)C=CC1C2(C)CCC(OC4OC(C(=O)O)C(O)C(O)C4OC4OC(C(=O)O)C(O)C(O)C4O)C(C)(CO)C2CCC13C` (configuration not stated), 22.3 min.
With `CC1(C)C=Cc2c(ccc(-c3coc4cc(O)cc(O)c4c3=O)c2O)O1`, the LC retention time was 26.9 min.
Under `C=CC(C)(C)c1cc(C=CC(=O)c2ccc(O)cc2)c(OC)cc1O` stands 26.3 min; under `O=c1cc(-c2ccc(O)cc2)oc2c(C3OCC(O)C(O)C3O)c(O)c(C3OC(CO)C(O)C(O)C3O)c(O)c12` (configuration not stated), 8.56 min.
Next, `COc1cc2oc(-c3ccc(O)c(CC=C(C)C)c3)c(O)c2cc1OC`: 24.8 min; `CC(C)=CCc1cc(-c2oc3cc(O)cc(O)c3c(=O)c2O)ccc1O`: 26.1 min.
Under `O=C1CC(c2ccc(OC3OC(CO)C(O)C(O)C3O)cc2)Oc2cc(OC3OC(CO)C(O)C(O)C3O)ccc21` (configuration not stated) stands 6.01 min; under `CC(=O)OC1CC(C)(C(=O)O)CC2C3=CC(=O)C4C5(C)CCC(OC6OC(C(=O)O)C(O)C(O)C6OC6OC(C(=O)O)C(O)C(O)C6O)C(C)(CO)C5CCC4(C)C3(C)CCC12C` (configuration not stated), 17.8 min.
For the compound `O=C1CC(c2ccc(O)cc2)Oc2cc(OC3OC(CO)C(O)C(O)C3O)ccc21` (configuration not stated), the LC retention time was 9.18 min.
Next, `CC(C)=CCc1cc(-c2cc(=O)c3c(O)cc(O)cc3o2)cc(O)c1O`: 24.9 min; `O=C(O)CC(C(=O)O)c1ccc(O)cc1` (configuration not stated): 4.34 min; `O=C(C=Cc1ccc(OC2OC(CO)C(O)C(O)C2O)cc1)c1ccc(O)cc1O` (configuration not stated): 14.3 min.
Under `O=C1CC(c2ccc(OC3OC(CO)C(O)C(O)C3O)cc2)Oc2cc(O)ccc21` (configuration not stated) stands 9.89 min.
